Where two headings read alike, the source gives them in different places.
What was measured:
[1] = target: T1, rat serotonin 1A receptors (Rattus norvegicus, UniProt P19327); experiment: Adenylate cyclase inhibition test via rat serotonin 1A receptors (full agonist-partial agonist judgment test), rat hippocampus membranes; format: biochemical; conditions: for inhibition: read-out: maximum inhibitory reaction of adenylate cyclase activity
T1 construct: Each rat was decapitated and the hippocampus was quickly removed; from tissue; host or cells: hippocampus of male Wistar rats
T1 sequence (P19327 1-422): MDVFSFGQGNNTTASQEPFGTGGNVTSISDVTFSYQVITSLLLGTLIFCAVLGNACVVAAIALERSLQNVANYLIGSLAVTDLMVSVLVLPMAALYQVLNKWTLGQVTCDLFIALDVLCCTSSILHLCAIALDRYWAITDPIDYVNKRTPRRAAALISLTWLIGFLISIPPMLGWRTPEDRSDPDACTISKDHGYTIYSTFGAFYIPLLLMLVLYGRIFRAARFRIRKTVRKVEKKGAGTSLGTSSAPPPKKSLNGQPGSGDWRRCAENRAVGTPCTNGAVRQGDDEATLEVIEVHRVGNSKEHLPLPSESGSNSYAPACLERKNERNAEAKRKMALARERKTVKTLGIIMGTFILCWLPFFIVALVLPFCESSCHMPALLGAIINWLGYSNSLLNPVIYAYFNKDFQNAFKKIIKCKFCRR
Description: For the test, Wistar male rats supplied by Shimizu Laboratory Supplies were used (9 to 15 weeks old). Each rat was decapitated and the hippocampus was quickly removed. It was homogenized in 10 volumes of buffer (i.e., 25 mM Tris-HCl, 1 mM EGTA, 5 mM EDTA, 5 mM DTT, 300 mM sucrose, 100 KIU/ml aprotinin, pH 7.4). This was then centrifuged at 500×g, 4° C. for 5 minutes, the supernatant was further centrifuged at 39,000×g, 4° C. for 10 minutes, and the residue was used as the rat hippocampus membrane specimen. The rat hippocampus membrane specimen was diluted by a buffer to 20 to 90 μg/mL of protein, then 50 μL of this cell membrane suspension was added to a 200 μL assay buffer containing each test sample (25 mM Tris-HCl, 100 mM NaCl, 2 mM MgCl2. 0.25 mM ATP, 5 mM phosphocreatine, 10 μg/mL creatine phosphokinase, 0.2 mM IBMX, 10 μM GTP, 10 μM forskolin, pH 7.4) and allowed to react at 30° C. for 5 minutes. 0.2N HCl was added in 250 μL to stop the reaction, then the cAMP produced was assayed by the radioimmunoassay method. […] Note that the adenylate cyclase activity was measured using as an indicator the amount of cAMP produced by the same enzyme. The rate of inhibition by the serotonin 1A receptor agonist was found using the amount of production due to forskolin (10 μM) stimulus as 100%.

[2] = test system: Parkinson's disease model rats; experiment: Hyperkinesia of the forelimbs and shortening of rotational behavior duration induced by repeated doses of levodopa; format: in vivo, rat
Source text: In rats with unilateral nigrostriatal dopamine nerve destruction generally used as Parkinson's disease animal models, it became clear that by administering levodopa by repeated dosage for about 5 weeks, behavior resembling the symptoms of advanced stage Parkinson's disease appeared. That is, in Parkinson's disease model rats prepared in the same way as in Example 4, along with repeated doses of levodopa, abnormal behavior such as involuntary extending of the forelimb or opening or closing of the hand, up-and-down movement of the wrist, choreiform tremor in the forelimb on the opposite side of microinjection of 6-hydroxydopamine was observed (FIG. 3). This abnormal behavior is reported by Steece-Collier et al. (Steece-Collier K. et al., “Embryonic mesencephalic grafts increase levodopa-induced forelimb hyperkinesia in parkinsonian rats”, Movement Disorders, 2003, 18, p. 1442-1454) as hyperkinesia of the forelimbs.
This appears dependent on the period of repeated doses of levodopa and reportedly is similar to clinical dyskinesia. […] Bibbiani et al. (Bibbiani F. et al., “Serotonin 5-HT1A agonist improves motor complications in rodent and primate parkinsonian models”, Neurology, 2001, 57, p. 1829-1834) report that in Parkinson's disease model rats, along with repeated doses of levodopa, a shortening of the rotational behavior duration is observed and that this phenomenon resembles the wearing off phenomenon in clinical studies.
That is, they treated each group by repeated doses of levodopa and repeated dosage of the tested substance for about 2 weeks (Monday to Friday) and observed the hyperkinesia of the forelimbs and rotational behavior after levodopa administration. Note that the SUN N4057 was subcutaneously administered right before levodopa administration, the sarizotan was orally administered about 20 minutes before levodopa dosage in accordance with above-mentioned known reports (Bibbiani F. et al., Neurology, 2001, 57, p. 1829-1834), and the Example Compound 4 of Japanese Patent Publication No. 2005-298402A was subcutaneously administered about 30 minutes before levodopa dosage in accordance with the above-mentioned Japanese Patent Publication No. 2005-298402A. Further, for the solvent, for SUN N4057 and Example Compound 4 of Japanese Patent Publication No. 2005-298402A, physiological saline was used.
In the same way as Example 4, Parkinson's disease model rats were prepared and the rats treated by repeated doses of levodopa (twice a day, Monday to Friday) for 5 weeks and measured for hyperkinesia of the forelimbs and rotational behavior. Further, based on the results of the hyperkinesia of the forelimbs and rotational behavior duration, the rats were assigned to the groups so as to prevent any significant difference between them, then the effects of the tested substances on these behaviors resembling symptoms of advanced stage Parkinson's disease patients were compared and studied. […] Note that compound Ib (0.3, 1 mg/kg) and compound Ic (0.3, 1 mg/kg) were both intraperitoneally administered right before levodopa administration. For the solvent, physiological saline was used.

rats [3] = experiment: Forced swimming method (anti-depressive action); format: in vivo, rat; conditions: 10 mg/kg i.p.
Source text: For the test, Crl: CD(SD) male rats supplied by Charles River Japan were used (6 weeks old at start of test). For the forced swimming test, the method of the improved type reported by Lucki et al. (Lucki I., “The forced swimming test as a model for core and component behavioral effects of antidepressant drugs”, Behavioural Pharmacology, 1997, 8, p. 523-532; Cryan J. F. et al., “Assessing antidepressant activity in rodents: recent developments and future needs”, TRENDS in Pharmacological Sciences, 2002, 23, p. 238-245) was used. On day 1, each rat was placed in a cylinder filled with water (height 45 cm×diameter 30 cm, water depth 30 cm, water temperature 23° C., water depth set to depth by which back legs and tail of rat will not touch the bottom). The rat was taken out after 15 minutes. At this time, the immobility period (seconds) of minutes 10-15 (5 minutes) was recorded. Based on the results, the rats were assigned to five groups so that there would be no difference among the groups. On day 2, each rat was placed in a cylinder filled with water the same as day 1 and the immobility period (seconds), swimming behavior period (seconds), and climbing behavior period (seconds) of minutes 0-5 (5 minutes) were measured. Note that the immobility period was defined as the minimum extent of movement for the rat to hold its head above the water, the swimming behavior as the swimming behavior circling around the inside of the cylinder in the horizontal direction, and the climbing behavior as the climbing behavior moving the forelimbs in the vertical direction along the cylinder walls to try to climb them. The tested substance was intraperitoneally administered 15 minutes after the end of swimming on day 1, and 4 hours and 30 minutes before swimming on day 2. Further, for the amount of locomotor activity, a measuring system (shape 48.8×48.8×30 cm, vertical 8 fractions, horizontal 8 fractions, for total of 64 fractions, Biomedica) set in a blacked out soundproof box was used to record the amount of locomotor activity of the rats at minutes 0-15 (15 minutes). Note that the dosages and timings of administration of the tested substances were set in the same way as the forced swimming test and the substance were intraperitoneally administered 24 hours, 4 hours, and 30 minutes before measurement of the amount of locomotor activity.

rats [4] = experiment: Amount of locomotor activity; format: in vivo, rat; conditions: 10 mg/kg i.p.; minutes 0-5
Source text: For the test, Crl: CD(SD) male rats supplied by Charles River Japan were used (6 weeks old at start of test). For the forced swimming test, the method of the improved type reported by Lucki et al. (Lucki I., “The forced swimming test as a model for core and component behavioral effects of antidepressant drugs”, Behavioural Pharmacology, 1997, 8, p. 523-532; Cryan J. F. et al., “Assessing antidepressant activity in rodents: recent developments and future needs”, TRENDS in Pharmacological Sciences, 2002, 23, p. 238-245) was used. On day 1, each rat was placed in a cylinder filled with water (height 45 cm×diameter 30 cm, water depth 30 cm, water temperature 23° C., water depth set to depth by which back legs and tail of rat will not touch the bottom). The rat was taken out after 15 minutes. At this time, the immobility period (seconds) of minutes 10-15 (5 minutes) was recorded. Based on the results, the rats were assigned to five groups so that there would be no difference among the groups. On day 2, each rat was placed in a cylinder filled with water the same as day 1 and the immobility period (seconds), swimming behavior period (seconds), and climbing behavior period (seconds) of minutes 0-5 (5 minutes) were measured. […]

Compound `CCCN(CCC)[C@@H]1CCc2cccc(O)c2C1` [8-OH-DPAT, (R)-(+)-8-hydroxy-2-(di-n-propylamino)tetraline] has an inhibition [1] of 32%.
`Cl.O=C1c2ccccc2OC=C(Cl)N1CCCCN1CC=C(c2ncccn2)CC1` [compound Ib, 3-chloro-4,5-dihydro-4-{4-[4-(2-pyrimidinyl)-1,2,3,6-tetrahydropyridin-1-yl]butyl}-1,4-benzoxazepin-5-one hydrochloride] was tested, and the rotational behavior duration ([2]; 0.3, 1 mg/kg i.p. repeated 2 weeks) was “tended to be prolonged” and the “hyperkinesia of the forelimbs” value ([2]; 0.3, 1 mg/kg i.p. repeated 2 weeks, 30 minutes and 1 hour after levodopa dosage) was “significantly inhibited”.
In the case of `Cc1ccnc(C2=CCN(CCCCN3C(=O)c4ccccc4OC=C3Cl)CC2)n1.O=C(O)/C=C/C(=O)O` [compound Ic, 3-chloro-4,5-dihydro-4-(4-{4-[(4-methyl)-2-pyrimidinyl]-1,2,3,6-tetrahydropyridin-1-yl}butyl)-1,4-benzoxazepin-5-one fumarate], the “hyperkinesia of the forelimbs” value ([2]; 0.3 mg/kg i.p. repeated 2 weeks, 30 minutes after levodopa dosage) is reported as “significantly inhibited”, the rotational behavior duration ([2]; 1.0 mg/kg i.p. repeated 2 weeks) is reported as “significantly prolonged” and the “hyperkinesia of the forelimbs” value ([2]; 1.0 mg/kg i.p. repeated 2 weeks, 30 minutes and 1 hour after levodopa dosage) is reported as “significantly inhibited”.
`CNCCCN1c2ccccc2CCc2ccccc21` [desipramine] was tested, and the climbing behavior period (rats [3]) was “significant increase”, the immobility period (rats [3]; minutes 0-5 on day 2) was “significant shortening of the immobility period” and the “amount of locomotor activity” value (rats [4]) was “decline”.
For `O=C1c2ccccc2S(=O)(=O)N1CCCCN1CCN(c2ncccn2)CC1` [ipsapirone], the IC50 ([1]; forskolin (10 μM) stimulated, rat hippocampus membranes, read-out: IC50 of adenylate cyclase inhibition (for the maximum reaction)) was 39 nM and the inhibition ([1]; forskolin (10 μM) stimulus = 100%, rat hippocampus membranes) was 19%.
